Measurements: US3971814A, “Benzo(b)thiophene derivatives” (priority 1972, dated 1976)
Entries after “also recorded” stand apart in the source; their conditions may differ.

Key:
[1] = tested on: Yeast Edema of the Rat Paw; test: Yeast edema and determination of pain threshold in the rat paw; type: in vivo; settings: 3 h; for Pain Threshold (change vs initial value) / Volume (increase in paw volume, blank control = 100%): i.g.
Experimental: test animals are male rats (SIV 50) weighing 100 to 180 g. […] 10 animals belonged to each dosage group.
The volume of the paw is determined according to the method described by Enders and Heidbrink, the pain threshold according to that described by Randall and Selitto (Arch. Int. Pharmacodyn CXI: 409, 1957).
Following initial measurements, […] of a 5% suspension of dried yeast is injected subplantarly into the right paw and the test substances are administered immediately. The blank control group is given Tragacanth mucilage only. After 3 hours the pain threshold and the volume of the paw are determined again.
The mean value of the increase in paw volume of the animals of the blank control after 3 hours is rated 100%, and the mean value of the increase in paw volume of the animals of the substance groups expressed as a percentage thereof. Pain threshold after 3 hours reflects the increase or decrease in percent, compared to the initial value.
In order to be able to calculate the ED50 according to the method by Lichtfield and Wilcoxon (J.P.E.T. 96:99, 1949), those animals in a dose group are considered protected when the paw swelling was at least 40% less than that of the blank control.

[2] = tested on: Arthritis Induced by the Freund Adjuvant; test: Adjuvant arthritis; type: in vivo; settings: rat, i.g.
Experimental: test animals used are the same as described under Example E; food and water is given ad libitum.
On the first day of the test a 0.8% suspension of Mycobacterium butyrium in paraffin (0.05 or 0.1 ml/paw) is injected subplantarly into the left hind paw of the animals. […] From the 19th to the 22nd day the animals showing a reaction are treated intragastrically with the test substances. The right paw having been marked above the ankle-joint, the volume is determined daily from the 19th to the 22nd or 23rd day, according to the process described under Example B.
The volume of liquid, as well as of the carrier administered, corresponded to that described in the above tests.

Granulation Tissue [3] = test: Cotton-pellet test (granulation tissue); type: in vivo; settings: rat; for Granulation Tissue % (Dry Weight) / Increase in Body Weight: i.g.; for granulation tissue % dry weight: section K
Experimental: test animals are male rats (SIV 50) weighing 110 to 200 g. All test animals are kept fasting for 16 to 18 hours prior to the implantation of the pellets; after that food and water were available ad libitum. Each dose level of the chemical tested was administered to 12 animals. The substances were suspended in 1% Tragacanth mucilage and administered intragastrically by means of a stomach tube. The substances to be investigated and the control suspensions are administered once on the operating day following operation, and twice a day on the following 6 days (at intervals of 6 to 8 hours). The type of application and volume of liquid corresponded to that under B.
Under light ether anesthesia 4 sterile cotton pellets were implanted under the skin on the back of the animal. The weight of one pellet was 50 mg ± 0.5 mg. After 7 days treatment, the animals were sacrificed, the pellets removed with the granulation tissue, weighed and then dried in the incubator at +80°C to constant weight. The average dry weight of the granulation tissue of the control group was rated 100%, and deviations of the mean weights of the group treated with the test substance determined as a percentage thereof.
The weight of the animals is measured daily throughout the tests, and the percental increase determined. At the end of some tests, moreover, the suprarenal glands are removed and their weight determined.

[4] = tested on: increased body temperature of the rat; test: Antipyresis (yeast-induced fever); type: in vivo; settings: i.g.
Experimental: test animals are male rats (SIV 50) weighing 100 to 180 g. 16 hours prior to the beginning of the test a 12% suspension of dried yeast (1 or 2 ml/100 g of body weight) is injected subcutaneously. When the maximum of the increase in body temperature is reached, following 3 to 4 initial measurements, the test substances are applied intragastrically and the development of the body temperature is observed for a period of 7 hours.
The test substances administered are suspended in Tragacanth mucilage; the volume of liquid administered amounting to 2 ml/100 g of body weight. In this test 2 control groups are used, one given sodium chloride subcutaneously (normal temperature group) and to the other group a yeast suspension is administered subcutaneously but, instead of the test substances, Tragacanth mucilage is administered intragastrically (fever control group).

Granuloma Pouch = test: Granuloma pouch test; type: in vivo; settings: rat, i.g.
Experimental: Under light ether anesthesia 25 ml of air are injected under the shaved skin of the back. 0.5 ml of croton oil/animal (0.05%) are injected into the pouch formed by the air, and evenly distributed over the back by turning the animal.
On the third day croton oil (3%, 0.5 ml/animal) is again injected into this pouch.
The average dry weights of the granuloma pouches and the quantities of secretion of the groups subjected to treatment are then compared with those of the control group and the percental deviations calculated.
At the end of some tests the suprarenal glands are removed and the weight of these organs is also determined.
The weight of the animals is measured daily and the changes determined as a percentage.

male mice (NMRI) [5] = settings: mouse, in vivo
male mice (NMRI) [6] = test: Hot-plate test (analgesia); type: in vivo; settings: mouse
Experimental: male mice (NMRI) weighing 18 to 28 g are used as test animals. The animals are placed on a copper plate constantly kept at 55°C, and the time is measured until they lick their forepaws.
Following 3 initial measurements, the test substances are administered intragastrically. Afterwards the measurements are repeated over a period of 2 hours at intervals of 30 minutes. Each dose is administered to 10 animals selected from groups of 15 animals following the initial measurements.
The test substances are administered as a suspension in 1% Tragacanth mucilage, the volume of liquid amounting to 2 ml/100 g of body weight.
For the purpose of statistical evaluation according to Litchfield and Wilcoxon, those animals in which the reaction time has been extended by at least 100% are considered protected.

[7] = Summary: calculated ED50 and therapeutic ratio; type: in vivo, rat; settings: for ED50: Rattus norvegicus; for therapeutic ratio: from ED50 and LD50 (A)
Experimental: From the ED50 and LD50 (A) the following therapeutic ratios for this test are calculated: […]

[8] = tested on: Carrageenin Edema of the Rat Paw; test: Carrageenin edema of the rat paw; type: in vivo
Experimental: test animals used are the same as stated under Example B and up to the initial measurement, the procedure corresponded to that described under this example.
After an initial measurement, the test substances are administered and after 60 minutes a 1% Carrageenin suspension is injected subplantarly (0.1 ml/paw). After 60 and 180 minutes the paw volume is again determined. Here, too, the blank control group was treated with the carrier alone.
The increase in the volume of the paw after 60 minutes is considered as the first phase of the biphase edema and that after 180 minutes, as compared to the 60-minute-value, as the second phase. Moreover, the total increase of the paw edema within 180 minutes, as compared to the initial value, is also determined.
Determination of the influence exerted by the substances upon the development of the paw edema and calculation of the ED50 are done as under Example B.

[9] = Overall summary of pharmacological results in words; type: in vivo
[10] = tested on: Kaolin Edema of the Rat Paw; test: Kaolin edema of the rat paw; type: in vivo
Experimental: test animals used are the same as stated under Example B and up to the beginning of the test, the procedure corresponded to that described under this example.
After an initial measurement, a sterile 25% kaolin suspension was injected (0.05 ml/paw) subplantarly. The test substances are administered immediately, and after 60, 120, and 180 minutes the paw volume is again determined.
Evaluation of the tests was performed as stated under Example C, and the results so obtained presented below: […]

in vivo [11] = settings: mouse
Granulation Tissue [12] = test: Cotton-pellet test (granulation tissue); type: in vivo; settings: rat, sc., section K; for increase in body weight %: control 27
in vivo [13] = settings: rat, po
Experimental: experimental animals are male mice (NMRI) weighing 16 to 24 g and male rats (SIV 50) weighing 120 to 180 g.
Prior to the beginning of the test, all animals are kept fasting for 16 to 18 hours, however water is offered ad libitum. 6 mice and 4 or 6 rats belonged to each dosage group and the doses between each group are increased logarithmically. The volume of liquid administered during testing amounted to 2 ml/100 g body weight. The substances tested are suspended in 1 percent Tragacanth mucilage and administered intragastrically via a gastric tube.

## CCOC(=N)c1sc2ccccc2c1O [Example 2, Ethyl 3-Hydroxy-Benzo[b]Thiophene-2-Carboximidate]
[1]; 31.2 mg/kg
  Pain Threshold (change vs initial value): +10%
  Volume (increase in paw volume, blank control = 100%): 77%
[1]; 62.5 mg/kg
  Pain Threshold (change vs initial value): +46%
  Volume (increase in paw volume, blank control = 100%): 50%
[1]; 125.0 mg/kg
  Volume (increase in paw volume, blank control = 100%): 35%
[2]; 2 × 125.0 mg/kg
  Swelling: 81%
Granulation Tissue [3]; 2 × 75 mg/kg daily
  Granulation Tissue % (Dry Weight): 78%
  Increase in Body Weight: not influenced
[4]; 150 mg/kg vs 300 mg/kg acetylsalicylic acid
  antipyretic effect: considerably more effective than 300 mg/kg of acetylsalicylic acid
[4]; yeast fever, vs control substances
  antipyretic effect (decreasing body temperature): superiority of the Example 2 substance for decreasing body temperature; also recorded: stronger than that of comparable substances
Granuloma Pouch; 2 × 125 mg/kg daily
  Granuloma Pouch Dry Weight: 70%
  Increase in Body Weight: not influenced
  Secretion: 59%
Male mice (NMRI) [5]
  LD50: 3.890 mg/kg
Male mice (NMRI) [6]; as shown in (H)
  analgesic activity: sufficient analgesic activity
[7]
  ED50: 93.1 mg/kg
  therapeutic ratio: 42.9
[8]; 62.5 mg/kg
  1st Phase (paw edema): 65%
  2nd Phase (paw edema): 73%
  3 Hrs. (total paw edema): 62%
[8]; 125.0 mg/kg
  1st Phase (paw edema): 65%
  2nd Phase (paw edema): 27%
  3 Hrs. (total paw edema): 42%
[8]; 250.0 mg/kg
  1st Phase (paw edema): 29%
  2nd Phase (paw edema): 20%
  3 Hrs. (total paw edema): 25%
[9]; all test models
  anti-inflammatory effect: proved in all test models; also recorded: of the same order as that of the most potent commercially available anti-inflammatory preparations
[9]; compared to customary anti-inflammatory preparations
  analgesic activity: particularly marked
[9]; doses as low as 50 mg/kg
  anti-inflammatory effect: clear anti-inflammatory effect
[9]; in vivo
  toxicity levels vs standard substances: very favorable
[10]; 25.0 mg/kg
  60 Minutes (paw edema): 36%
  120 Minutes (paw edema): 44%
  180 Minutes (paw edema): 50%
[10]; 50.0 mg/kg
  60 Minutes (paw edema): 62%
  120 Minutes (paw edema): 40%
  180 Minutes (paw edema): 5%

## CCN(CC)CCNC(=N)c1sc2ccccc2c1O [Example 30]
[1]; sc., 150 mg/kg, section K (control -26)
  change in vivo at 150 mg/kg: 18%
[1]; sc., 150 mg/kg, section K, read-out: volume (paw, control = 100%)
  response vs control in vivo at 150 mg/kg: 53%
Granulation Tissue [3]; sc., 2×75,0 mg/kg daily
  granulation tissue % dry weight: 68%
In vivo [11]; po
  LD50: ~1000 mg/kg
In vivo [11]; sc
  LD50: ~1000 mg/kg
Granulation Tissue [12]; 2×50,0 mg/kg daily
  granulation tissue % dry weight: 82%
  increase in body weight %: 27%
Granulation Tissue [12]; 2×75,0 mg/kg daily
  increase in body weight %: 27%

## COc1ccc2c(c1)c(CC(=O)O)c(C)n2C(=O)c1ccc(Cl)cc1 [Indomethacin, 1-(p-Chlorobenzoyl)-5-methoxy-2-methylindole-3-acetic acid]
[1]; 5.0 mg/kg
  Pain Threshold (change vs initial value): -22%
  Volume (increase in paw volume, blank control = 100%): 131%
[1]; 20.0 mg/kg
  Pain Threshold (change vs initial value): +11%
  Volume (increase in paw volume, blank control = 100%): 108%
[1]; po, ig., 5 mg/kg, section K
  change in vivo at 5 mg/kg: -22%
[1]; po, ig., 5 mg/kg, section K, read-out: volume (paw, control = 100%)
  response vs control in vivo at 5 mg/kg: 100%
[2]; 2 × 2.5 mg/kg
  Swelling: 80%
Granulation Tissue [3]; 2 × 1.5 mg/kg daily
  Granulation Tissue % (Dry Weight): 80%
  Increase in Body Weight: not influenced
Granulation Tissue [3]; ig., 2×1,5 mg/kg daily, NaCl control group
  granulation tissue % dry weight: 91%
Granulation Tissue [3]; ig., 2×1,5 mg/kg daily, tragacanth control group
  granulation tissue % dry weight: 65%
In vivo [11]; po
  LD50: < 10 mg/kg
In vivo [13]
  LD50: 20 to 30 mg/kg
Granuloma Pouch; 2 × 1.5 mg/kg daily
  Exitus (footnote): Exitus of an animal
  Granuloma Pouch Dry Weight: 98%
  Increase in Body Weight: not influenced
  Secretion: 134%
Male mice (NMRI) [6]; i.g.
  Notes (analgesic activity): slightly effective
Male mice (NMRI) [6]; i.g., starting with 20 mg/kg
  protection: approx. 50%
[7]
  ED50: 0.9 mg/kg
  therapeutic ratio: 33.3
[8]; 1.0 mg/kg
  1st Phase (paw edema): 65%
  2nd Phase (paw edema): 80%
  3 Hrs. (total paw edema): 73%
[8]; 5.0 mg/kg
  1st Phase (paw edema): 80%
  2nd Phase (paw edema): 73%
  3 Hrs. (total paw edema): 73%
[10]; 2.5 mg/kg
  60 Minutes (paw edema): 79%
  120 Minutes (paw edema): 81%
  180 Minutes (paw edema): 81%
